Measured values reported in patent US12440581B2, “Fluorophores for super-resolution imaging” (HOWARD HUGHES MEDICAL INSTITUTE, priority 2019, dated 2025).

Experiments:
HaloTag protein = HaloTag protein (Rhodococcus rhodochrous, UniProt P0A3G2, A155T/A167V/A172T/A224E/C128F/C176G/D78G/E160K/E257K/H272N/K175M/K195N/L47V/L88M/N227D/P291S/S2A/S58T/T264A/Y273L/Y87F); experiment: Increase in absorption of HaloTag ligands following attachment to HaloTag protein; assay type: biochemical; conditions: 5 μM ligand, 1.5 equiv HaloTag protein
Chain of HaloTag protein (P0A3G2 other isoform, or with tags, fused parts or gaps with the stated changes): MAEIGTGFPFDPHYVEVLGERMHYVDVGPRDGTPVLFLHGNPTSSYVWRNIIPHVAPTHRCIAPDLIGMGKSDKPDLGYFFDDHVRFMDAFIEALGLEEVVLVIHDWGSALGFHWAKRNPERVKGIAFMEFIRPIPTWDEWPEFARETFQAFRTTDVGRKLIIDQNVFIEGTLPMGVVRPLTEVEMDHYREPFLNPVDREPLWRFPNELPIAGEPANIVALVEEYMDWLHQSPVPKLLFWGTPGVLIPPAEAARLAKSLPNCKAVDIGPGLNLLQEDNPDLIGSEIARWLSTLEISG
Experimental: Measurement of increase in absorption of HaloTag ligands 1HTL-10HTL following attachment to HaloTag protein. HaloTag protein was prepared as a 100 μM solution in 75 mM NaCl, 50 mM TRIS·HCl, pH 7.4. Absorption measurements were performed in 1.0-mL quartz cuvettes. HaloTag ligands (5 μM) were dissolved in 10 mM HEPES, pH 7.3 containing 0.1 mg/mL CHAPS. An aliquot of HaloTag protein (75 μL, 7.5 μM, 1.5 equiv) or an equivalent volume of buffer (75 mM NaCl, 50 mM TRIS·HCl, pH 7.4) was added and the resulting mixture was incubated until a consistent absorption signal was observed (˜60 min). Absorption scans are averages (n=2).

histone H2B-SNAP-tag = experiment: Comparison of SNAP ligands 7STL and 10STL in live cells (no-wash); assay type: cell-based; conditions: 1 μM, 1 h
From the text: Comparison of SNAP ligands 7STL and 10STL in live cells.

histone H2B-HaloTag = experiment: Comparison of HaloTag ligands 7HTL and 10HTL in live cells (no-wash); assay type: cell-based; conditions: 500 nM, 30 min
From the text: Comparison of HaloTag ligands 7HTL and 10HTL in live cells.

[1] = Quantum yield determination; assay type: physicochemical; conditions: absolute, integrating sphere
Experimental: Quantum yield determination. All reported absolute fluorescence quantum yield values (Φ) were measured in the laboratory under identical conditions using a Quantaurus-QY spectrometer (model C11374, Hamamatsu). This instrument uses an integrating sphere to determine photons absorbed and emitted by a sample. Measurements were carried out using dilute samples (A<0.1) and self-absorption corrections were performed using the instrument software^57 when appropriate. Reported values are averages (n=3).

[2] = Determination KL-Z and εmax; assay type: physicochemical
Experimental: Determination KL-Z and εmax. The lactone-zwitterion equilibrium constant (KL-Z) was calculated as described previously^18,41 using equation 1: KL-Z=(εdw/εmax)/(1−εdw/εmax) (1) • where εdw is the extinction coefficient of the dyes in a 1:1 (v/v) dioxane:water solvent mixture containing 0.01% (v/v) triethylamine; the dioxane-water mixture was chosen to give a large range of KL-Z values and the triethylamine additive ensures the rhodamines are in the net neutral form. The emax (maximal extinction coefficient) values were measured in 0.1% (v/v) trifluoroacetic acid (TFA) in 2,2,2-trifluoroethanol (TFE) for rhodaminc 10, and 0.1% (v/v) TFA in ethanol for the Si-rhodamine 8.
Instead, a solution of strong acid in alcoholic solvents was used (e.g., TFA in […]) to shift the equilibrium to the open form by protonation of the o-carboxyl group. This decades-old procedure^36 allows estimation of the maximal extinction coefficient (εmax) and determination of KL-Z=(ε/εmax)/(1−ε/εmax).
The KL-Z was determined using ε values measured in 1:1 dioxane:water to ensure a broad distribution of values.^18 An inverse relationship was observed between KL-Z and fluorogenicity, showing that KL-Z is sufficient to accurately predict the increase in fluorescence of rhodamine dyes. This increase in fluorescence is primarily driven by the increase in absorption; chromogenicity is correlated both with KL-Z and fluorogenicity (FIGS. 11E-11J). Importantly, this trend holds across different rhodamine scaffolds including Si-rhodamines (1-3), carborhodamines (4-5), and classic, oxygen-containing rhodamines (6-7, FIG. 1C). Based on this inverse relationship a simple rubric was determined: a dye with KL-Z<10^−2 should yield a HaloTag ligand with at least 10-fold fluorogenicity (FIG. 1E).

[3] = UV-vis and fluorescence spectroscopy; assay type: physicochemical; conditions: 10 mM HEPES, pH 7.3
Experimental: UV-vis and fluorescence spectroscopy. […] Spectroscopy was performed using 1-cm path length, 3.5-mL quartz cuvettes or 1-cm path length, 1.0-ml quartz microcuvettes (Starna Cells). All measurements were taken at ambient temperature (22±2° C.). Absorption spectra were recorded on a Cary Model 100 spectrometer (Agilent). Fluorescence spectra were recorded on a Cary Eclipse fluorometer (Varian). Maximum absorption wavelength (λabs), extinction coefficient (εw), and maximum emission wavelength (λem) were taken in 10 mM HEPES, pH 7.3 buffer unless otherwise noted; reported values for ew are averages (n=3). Normalized spectra are shown for clarity.

microtubules = conditions: live-cell no-wash imaging
Experimental: Imaging was performed on a LSM880 confocal microscope (Zeiss) using the following configuration: excitation: 514 nm/emission: 526-615 nm (JF526); excitation: 594 nm/emission: 599-734 nm (JF585); excitation: 633 nm/emission: 638-759 nm (JF646 or SiR).

In the case of `O=C(NCCOCCOCCCCCCCl)c1ccc(C(=O)[O-])c(-c2c3cc(F)c(=[N+]4CC(F)(F)C4)cc-3oc3cc(N4CC(F)(F)C4)c(F)cc23)c1` [10HTL, JF526-HaloTag ligand], the “increase of absorbance upon conjugation to purified HaloTag protein” value (HaloTag protein) is reported as “substantial increase”.
In the case of `Nc1nc(OCc2ccc(CNC(=O)c3ccc(C(=O)[O-])c(-c4c5cc(F)c(=[N+]6CC(F)(F)C6)cc-5oc5cc(N6CC(F)(F)C6)c(F)cc45)c3)cc2)c2nc[nH]c2n1` [10STL, JF526-SNAP-tag ligand], the “signal-to-background compared to JF525” value (histone H2B-SNAP-tag) is reported as “superior signal-to-background”.
With `O=C([O-])c1ccccc1-c1c2cc(F)c(=[N+]3CC(F)(F)C3)cc-2oc2cc(N3CC(F)(F)C3)c(F)cc12` [dye 10, Janelia Fluor 526] the “signal-to-background compared to JF525” value (histone H2B-HaloTag) was “superior signal-to-background”, the “ϕ (fluorescence quantum yield)” value [1] was 0.87 and the εmax ([2]; 0.1% TFA in TFE (rhodamine 10), 0.1% TFA in ethanol (Si-rhodamine 8)) was 118,000 M^−1cm^−1. For the same compound, the “KL-Z (lactone-zwitterion equilibrium constant)” value ([2]; 1:1 (v/v) dioxane:water, 0.01% triethylamine) was 0.0050, the εw [3] was 19,000 M^−1cm^−1 and the λabs [3] was 526 nm. It also gave a λem [3] of 550 nm.
In the case of JF526-Taxol [10TXL], the “performance relative to SiR-tubulin (1TXL)” value (microtubules) is reported as “comparable performance”.
